This is an account of results in EP1724268A1, “COMPOUND HAVING TGF-BETA INHIBITORY ACTIVITY AND PHARMACEUTICAL COMPOSITION CONTAINING SAME” (KIRIN BEER KABUSHIKI KAISHA, priority 2004, dated 2005).

In one assay the test system is TGFβ signal. As to the kind of experiment: TGFβ signal inhibitory activity, (SBE)4-Luc reporter in A549 cells (Test Examples 1A and 1B). The format is cell-based, human. Particulars: Homo sapiens, A549, TGFβ-1 2 ng/ml, 4 hr, Table 1A, read-out: TGFβ inhibition rate, %; for inhibition at 3 µM: test compound 3 µM; for inhibition at 10 µM: test compound 10 µM. An outline of the steps: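 Compounds at 3 µM and 10 µM (some 1 µM) were added with 2 ng/ml TGFβ-1 to A549 cells stably expressing an SBE-driven luciferase, then cultured 4 hr. Chemiluminescent luciferase signal gave % inhibition versus TGFβ-alone and no-TGFβ controls.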

A further assay concerns A549 cells. The assay is described as follows: Cell growth inhibitory activity using A549 cells (Test Example 6). It counts as cell-based, Human. Particulars: for inhibition at 30 µM: Homo sapiens, A549, compound 30 µM, 5% serum, 40 hr, counting kit-8, read-out: Cell growth inhibition rate (%); for inhibitory activity against cell growth or BMP4 signals: as compared with Example 261 or Example 269 described in WO 03/00660; for inhibitory activity against cell growth of A549 cells: as compared with Example 274 described in WO 03/00660. Here is the method: Human lung cancer epithelial cells (A549) (available from ATCC) were suspended to a concentration of 3 × 10^4/ml in a DMEM/F12 medium containing 10%FCS, and the suspension was inoculated in 100 µl portions in wells of a 96-well plate. On the following day, a stock solution of the test compound which had been adjusted to 10 mM with DMSO was adjusted with a serum-free DMEM/F12 medium to a dose (60 µM) which was twice the evaluation concentration. After removing the medium inoculated in the 96 wells on the previous day, the solution was added in 50 µl portions to the plate. Next, a DMEM/F12 medium containing 10% serum was added in 50 µl portions to the wells, followed by culturing at 37°C for 40 hr. The final concentration of the serum and the concentration of the evaluation compound were 5% and 30 µM, respectively. The compounds according to the present invention synthesized in the working example were used as the test compound. […]
After 40 hr, the culture was removed, and 100 µl of a solution prepared by diluting counting kit-8 (purchased from Dojindo) with a serum-free F12 medium by 10 times was added, followed by culturing at 37°C for 20 to 30 min. After the confirmation of suitable color development, the absorbance at 450 nm was measured with ARVO (purchased from Wallach Bethold Japan). The cell growth inhibition in the test compound added wells were determined by presuming the absorbance value in the test compound-free wells to be 0% and the absorbance value in the cell-free wells to be 100%.

A further assay has as its system BMP4 signal. As to the kind of experiment: BMP signal inhibitory activity, p(GCCG)12-Luc reporter in HepG2 cells (Test Example 7). The format is cell-based, human. Particulars: for Selectivity for BMP (times): Inhibitory activity against BMP4 signal (IC50)/Inhibitory activity against TGFβ signal (IC50), HepG2 reporter cells, BMP4 20 ng/ml, TGFβ-1 2 ng/ml, 4 hr; for inhibitory activity against BMP4 signals: as compared with Example 274 described in WO 03/00660. From the text:
The inhibitory activity of the compounds according to the present invention against BMP signals was studied using a cell line through which TGFb and BMP signals can be simultaneously observed. Specifically, the cell lines capable of detecting the two signal was generated by transfecting reporter plasmids for detection of TGFb and BMP signals into a human hepatocarcinoma cell line HepG2(available from ATCC) and was used as evaluation cells. For detection of TGF-beta signal, the plasmid having four tandem binding sequences of Smad2/3, TGF-beta signal transducers, to the upstream of a luciferases gene were used as a reporter plasmid (p(SBE)4-Luc/hygro). For detection of BMP signal, the plasmid having twelve tandem binding sequences of Smadl/5/8, BMP signal transducers, to the upstream of a luciferases gene were used as a reporter plasmid (p(GCCG)12-Luc/neo), according to the method described in Mol Biol Cell. 2000 11(2): 555-65. The test compound and TGFβ-1 (2 ng/ml) or BMP4 (20 ng/ml) were added to the cells, and the mixture was cultured for 4 hr. The compounds according to the present invention synthesized in the working example were used as the test compound. […] After the culture, the luciferase activity of the cells was measured by chemiluminescence (Steady Glo (trademark) luciferase assay system, available from Promega). Likewise, the luciferase activity was measured as control for the culture of cells with only TGFβ or BMP4 added thereto and the culture of cells with the addition of none of TGFβ, BMP4 and the test compound. The inhibitory activity IC50 of the compounds against TGFβ and BMP4 was calculated based on the results of measurement, and the kinase selectivity for BMP4 was determined by the following method. Kinase selectivity for BMP4 (times) = Inhibitory activity against BMP4 signal (IC50)/Inhibitory activity against TGFβ signal (IC50)

Consider `CCc1ccc(Oc2ccnc3cc(C(N)=O)c(OC)cc23)c(-c2ccccn2)n1` [Compound 179, 4-(6-Ethyl-[2,2']bipyridinyl-3-yloxy)-6-methoxy-quinoline-7-carboxylic acid amide], for which, in the assay on TGFβ signal, the inhibition at 3 µM turned out to be 100% and the inhibition at 10 µM turned out to be 100%. Moreover, in the assay on A549 cells, the inhibition at 30 µM was -3% and the “inhibitory activity against cell growth or BMP4 signals” value is reported as “reduced inhibitory activity”.
As for `CCc1ccc(Oc2ccnc3ccc(OCCO)cc23)c(-c2ccccn2)n1` [Compound 181, 2-[4-(6-Ethyl-[2,2']bipyridinyl-3-yloxy)-quinolin-6-yloxy]-ethanol], in the assay on TGFβ signal, the inhibition at 3 µM came out at 100% and the inhibition at 10 µM is 100%. Further, in the assay with A549 cells, the inhibition at 30 µM was -7% and the “inhibitory activity against cell growth or BMP4 signals” value is on record as “reduced inhibitory activity”. In addition, the “Selectivity for BMP (times)” value in the assay on BMP4 signal was found to be 308 times.
Turning to `CCc1ccc(Oc2ccnc3ccc(OCCOC(C)=O)cc23)c(-c2ccccn2)n1` [Compound 182, 2-[4-(6-Ethyl-[2,2']bipyridinyl-3-yloxy)-quinolin-6-yloxy]-ethyl acetate], in the assay on TGFβ signal, the inhibition at 3 µM was 99% and the inhibition at 10 µM turned out to be 100%. Also, in the assay with A549 cells, the inhibition at 30 µM is -8% and the “inhibitory activity against cell growth or BMP4 signals” value was “reduced inhibitory activity”. In addition, the “Selectivity for BMP (times)” value in the assay on BMP4 signal came out at 195 times.
With `CCc1ccc(Oc2ccnc3ccc(O)cc23)c(-c2ccccn2)n1` [Compound 184, 4-(6-Ethyl-[2,2']bipyridinyl-3-yloxy)-quinolin-6-ol], in the assay on TGFβ signal, the inhibition at 3 µM is 100% and the inhibition at 10 µM amounted to 100%. In addition, in the assay on A549 cells, the inhibition at 30 µM was determined as 8% and the “inhibitory activity against cell growth or BMP4 signals” value is on record as “reduced inhibitory activity”. Besides, the “Selectivity for BMP (times)” value in the assay with BMP4 signal is on record as more than 428 times.
With `CCc1ccc(Oc2ccnc3ccc(OC(C)=O)cc23)c(-c2ccccn2)n1` [Compound 186, 4-(6-Ethyl-[2,2']bipyridinyl-3-yloxy)-quinolin-6-ylacetate], in the assay with TGFβ signal, the inhibition at 3 µM was 100% and the inhibition at 10 µM turned out to be 100%. Besides, the inhibition at 30 µM in the assay on A549 cells was -2%.
`CCc1ccc(Oc2ccnc3ccc(OS(C)(=O)=O)cc23)c(-c2ccccn2)n1` [Compound 187, 4-(6-Ethyl-[2,2']bipyridinyl-3-yloxy)-quinolin-6-yl methanesulfonate]: in the assay with TGFβ signal, the inhibition at 3 µM was determined as 100% and the inhibition at 10 µM was found to be 100%. Moreover, in the assay with A549 cells, the inhibition at 30 µM worked out at 0% and the “inhibitory activity against cell growth or BMP4 signals” value is “reduced inhibitory activity”. Besides, in the assay with BMP4 signal, the “Selectivity for BMP (times)” value was 72 times.
`CCc1ccc(Oc2ccnc3ccc(OCCO)cc23)c(-c2ncccn2)n1` [Compound 192, 2-[4-(6-Ethyl-2-pyrimidin-2-yl-pyridin-3-yloxy)-quinolin-6-yloxy]-ethanol]: in the assay on TGFβ signal, the inhibition at 3 µM worked out at 97% and the inhibition at 10 µM worked out at 100%. Moreover, in the assay on A549 cells, the inhibition at 30 µM amounted to 3% and the “inhibitory activity against cell growth of A549 cells” value (from here on “inhibitory activity … of A549 cells”) was “reduced inhibitory activity”. Further, in the assay on BMP4 signal, the “Selectivity for BMP (times)” value is more than 176 times and the “inhibitory activity against BMP4 signals” value is reported as “reduced inhibitory activity”.
For the compound `CCc1ccc(Oc2ccnc3cc(C(N)=O)c(O)cc23)c(-c2ncccn2)n1` [Compound 194, 4-(6-Ethyl-2-pyrimidin-2-yl-pyridin-3-yloxy)-6-hydroxy-quinoline-7-carboxylic acid amide], the inhibition at 3 µM with TGFβ signal is 60%. In the assay on A549 cells, the inhibition at 30 µM was -15% and the “inhibitory activity … of A549 cells” value is given as “reduced inhibitory activity”. Moreover, in the assay on BMP4 signal, the “Selectivity for BMP (times)” value was determined as 51 times and the “inhibitory activity against BMP4 signals” value is given as “reduced inhibitory activity”.
`Cc1cc(Oc2ccnc3ccc(OCCO)cc23)c(-c2ncccn2)nc1C` [Compound 200, 2-[4-(5,6-Dimethyl-2-pyrimidin-2-yl-pyridin-3-yloxy)-quinolin-6-yloxy]-ethanol]: the inhibition at 3 µM with TGFβ signal was 85%. Also, in the assay on A549 cells, the inhibition at 30 µM amounted to 0% and the “inhibitory activity … of A549 cells” value is “reduced inhibitory activity”. Further, in the assay with BMP4 signal, the “Selectivity for BMP (times)” value turned out to be 75 times and the “inhibitory activity against BMP4 signals” value is recorded as “reduced inhibitory activity”.
`Cc1ccc(Oc2ccnc3ccc(O)cc23)c(-c2ncccn2)n1` [Compound 201, 4-(6-Methyl-2-pyrimidin-2-yl-pyridin-3-yloxy)-quinolin-6-ol]: the inhibition at 3 µM in the assay with TGFβ signal came to 82%. In addition, in the assay on A549 cells, the inhibition at 30 µM came to 2% and the “inhibitory activity … of A549 cells” value is listed as “reduced inhibitory activity”. Besides, in the assay on BMP4 signal, the “inhibitory activity against BMP4 signals” value is reported as “reduced inhibitory activity”.
For the compound `Cc1ccc(Oc2ccnc3ccc(OCCO)cc23)c(-c2ncccn2)n1` [Compound 202, 2-[4-(6-Methyl-2-pyrimidin-2-yl-pyridin-3-yloxy)-quinolin-6-yloxy]-ethanol], the inhibition at 3 µM in the assay on TGFβ signal came out at 86%. Moreover, in the assay with A549 cells, the inhibition at 30 µM worked out at 8% and the “inhibitory activity … of A549 cells” value was “reduced inhibitory activity”. Moreover, in the assay with BMP4 signal, the “Selectivity for BMP (times)” value stood at 21.4 times and the “inhibitory activity against BMP4 signals” value is “reduced inhibitory activity”.
Take `CCc1ccc(Oc2ccnc3ccc(OCCN)cc23)c(-c2ncccn2)n1` [Compound 204, 2-[4-(6-Ethyl-2-pyrimidin-2-yl-pyridin-3-yloxy)-quinolin-6-yloxy]-ethylamine]: in the assay on TGFβ signal, the inhibition at 3 µM came to 84%. Besides, in the assay on A549 cells, the inhibition at 30 µM is -9% and the “inhibitory activity … of A549 cells” value was “reduced inhibitory activity”. For the same compound, the “inhibitory activity against BMP4 signals” value with BMP4 signal was “reduced inhibitory activity”.
As to `Cc1ccc(Oc2ccnc3ccc(OCCO)cc23)c(-c2ccccn2)n1` [Compound 205, 2-[4-(6-Methyl-[2,2']bipyridyl-3-yloxy)-quinolin-6-yloxy]-ethanol], the inhibition at 3 µM in the assay on TGFβ signal was 98%. In the assay on A549 cells, the inhibition at 30 µM was determined as 9% and the “inhibitory activity against cell growth or BMP4 signals” value is “reduced inhibitory activity”.
On to `CCc1ccc(Oc2ccnc3ccc(OCCOC(C)=O)cc23)c(-c2ncccn2)n1` [Compound 206, 2-[4-(6-Ethyl-2-pyrimidin-2-yl-pyridin-3-yloxy)-quinolin-6-yloxy]-ethyl acetate], for which the inhibition at 3 µM with TGFβ signal was 89%. Besides, in the assay on A549 cells, the inhibition at 30 µM is -1% and the “inhibitory activity … of A549 cells” value is reported as “reduced inhibitory activity”. For the same compound, the “inhibitory activity against BMP4 signals” value in the assay with BMP4 signal was “reduced inhibitory activity”.
As for `Cc1ccc(Oc2ccnc3cc(C(N)=O)ccc23)c(-c2ncccn2)n1` [Compound 217, 4-(6-Methyl-2-pyrimidin-2-yl-pyridin-3-yloxy)-quinoline-7-carboxylic acid amide], in the assay on TGFβ signal, the inhibition at 3 µM is 90% and the inhibition at 10 µM worked out at 100%. Further, in the assay with A549 cells, the inhibition at 30 µM came out at 4% and the “inhibitory activity … of A549 cells” value was “reduced inhibitory activity”. In addition, the “inhibitory activity against BMP4 signals” value in the assay with BMP4 signal was “reduced inhibitory activity”.

A word on the inhibition: it is the relative decrease from the control value, in per cent.
